Earlier results as cited in US20070098654A1, “Nail whitening composition” (L'OREAL, priority 2005, published 2007).

Details: at 20° C.

Solubility in water: about 500 g/l
Compound: NC(N)=O.OO [Carbamide peroxide]
